# Results: PubChem BioAssay (NCI)
# Where “and” joins values, the source holds several entries; their conditions need not be identical. Identical values can stand only once.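 Grown in 96-well plates, cells were treated for 48 hours with each compound at five concentrations. Insufficient inhibition: endpoint recorded as highest concentration tested. GI50 marks 50% less growth. TGI denotes the concentration required for complete inhibition of growth.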
# System: HOP-62 NSCLC
# Assay: DTP human tumour cell line panel, 48 h
SMILES,TGI [µM],GI50 [µM]
Nc1nc(Cl)cc(NCCCCCCCCNc2cc(Cl)nc(N)n2)n1,> 100,–
CC(C)N(C(=O)C12C3C4C1C1C4(C#N)C3C12C#N)C(C)C (stereo unspecified),> 100,–
O=C1CCC(Cl)=CC2CCCN12 (stereo unspecified),> 100,–
c1ccc2cc(-c3cc4ccccc4s3)ccc2c1,> 100,–
CCOC(=O)C(C#N)C1=CC(=O)C(=O)c2ccc(OC)cc21 (stereo unspecified),51.7,–
COc1cc(OCc2cccc(-c3ccc(C(O)c4nccs4)cc3)c2C)cc(OC)c1C=O (stereo unspecified),18.3,3.88
O=C(O)COc1ccc2c(=O)c3sc4c(=O)c5ccccc5c(=O)c4c3c(=O)c2c1,22.4,8.03
Cc1ccc(S(=O)(=O)N(C=O)N=C2CCN(Cc3ccccc3)CC2)cc1,> 100,–
CC(C)C(CCl)NC(=O)c1cccc(C(=O)N[C@H](CCl)C(C)C)n1 (stereo in doubt),> 100,–
CC[As](CC)SC[C@H](C)C(=O)N1CCC[C@H]1C(=O)O,1.37,0.417
NC(N)=N/N=C/c1c(-c2ccsc2)nc2sccn12,27.4,14.3
Oc1ccc(Nc2ncnc3c2sc2ncccc23)cc1,–,0.0175
CC(=O)OC1COC(Oc2c(C)c3c4c(c2O)[C@@H](C)CC[C@@H]4[C@@H](C)C[C@H]3C=C(C)C)C(O)C1OC(C)=O (stereo partly specified),36.1,20
O=c1/c(=C/c2ccccc2[N+](=O)[O-])sc2nnc(-c3ccco3)n12,39.2,–
CC(=O)CCn1ncc(Cl)c(Cl)c1=O,35.4,–
CN1CC(=O)N2Cc3ccccc3-n3cccc3C2C1 (stereo unspecified),> 100,–
Cc1ccc(SC2c3ccc(C)cc3Oc3nc(N)c(C#N)c(N)c32)cc1 (stereo unspecified),3.4,1.79

# System: HCT-116 colon
# Assay: DTP human tumour cell line panel, 48 h
SMILES,TGI,GI50
Clc1ccc2c(c1)[nH]c1c2nc2ccccn21,48.3 µM and 46.6 µM,–
CCOC(=O)c1cnc2c(ccc3[nH]n(C)nc32)c1=O,61.4 µM,–
NC(=S)N/N=C(\CC1OC(=O)c2ccccc21)c1ccc(Cl)cc1 (stereo unspecified),54.9 µM,–
COc1ccc2occ(CCC(=O)O)c2c1,> 100 µM,–
COC(=O)C(C(=O)c1ccccc1)C(C(=O)C(=O)Nc1ccc(OC)cc1OC)C(=O)C(=O)c1ccc(C)cc1 (stereo unspecified),> 100 µM,–
CC1(C)COC(C2(C)C(=O)C=C(c3ccccc3)c3ccccc32)=N1 (stereo unspecified),> 100 µM,–
O=C(Nc1ccn(CCO)c(=O)n1)c1ccccc1,> 100 µM,–
COc1ccc(Sc2[nH]c(C(C)=O)c3ccccc23)cc1,24.3 µM,12 µM
CC12C/C(=C\c3ccccc3)C(=O)C3C1CCCC32,> 100 µM,–
OC(CC1SCCCS1)c1ccccc1 (stereo unspecified),> 100 µM,–
CCCCOC(=O)CNC(=O)OC/C=C/C#CC#C/C=C/COC(=O)NCC(=O)OCCCC,> 100 µM,> 100 µM
COc1ccc(OC)c2c1[nH]c(=O)c1c3ccccc3cn21,2.01 µM,0.673 µM
COc1cccc2c1C(=O)c1c(O)c3c(c(O)c1C2=O)C[C@@](O)(C(=O)CO)C[C@@H]3OC1CC(N)CC(C)O1 (stereo partly specified),0.79 µM and 0.33 µM,0.0155 µM and 0.0431 µM
O=C1c2ccccc2C(=O)N1CCn1ccc(NC(c2ccccc2)(c2ccccc2)c2ccccc2)nc1=O,32.4 µM,–
O=CCC1CCCCC1,> 100 µM,–
CCC12CCCN(Cc3ccccc3)C1c1c(n(C)c3ccccc13)CC2 (stereo unspecified),> 253 µM,–
Nc1ccc([N+](=O)[O-])cc1N=C/C=C/c1ccccc1,25 µM,7.86 µM
CCN(CC)CCCN1CCc2c([nH]c3ccccc23)C1c1cccnc1 (stereo unspecified),> 100 µM,–
COC(=O)C1c2cc3c(cc2C(OC2OC(C)C(OC)C(C)(OC)C2OC)CC1(C)O)C(=O)c1c(O)cc2c(c1C3=O)OC1OC2(C)C(O)C([N+](C)(C)[O-])C1O (stereo unspecified),> 100 µM,–

SMILES,TGI,GI50
CNCc1ccccc1-c1csc([C@@H](C)Nc2nc(C)nc3cc(OC)c(OC)cc23)c1,3.41 µM,1.71 µM
Nc1nc(Cl)cc(NCCCCCCCCNc2cc(Cl)nc(N)n2)n1,> 100 µM,–
O=C1CCC(Cl)=CC2CCCN12 (stereo unspecified),> 100 µM,–
c1ccc2cc(-c3cc4ccccc4s3)ccc2c1,> 100 µM,–
CCOC(=O)C(C#N)C1=CC(=O)C(=O)c2ccc(OC)cc21 (stereo unspecified),44.8 µM,–
COc1cc(OCc2cccc(-c3ccc(C(O)c4nccs4)cc3)c2C)cc(OC)c1C=O (stereo unspecified),4.51 µM,1.44 µM
O=C(O)COc1ccc2c(=O)c3sc4c(=O)c5ccccc5c(=O)c4c3c(=O)c2c1,63.3 µM,15.7 µM
Cc1ccc(S(=O)(=O)N(C=O)N=C2CCN(Cc3ccccc3)CC2)cc1,> 100 µM,–
CC(C)C(CCl)NC(=O)c1cccc(C(=O)N[C@H](CCl)C(C)C)n1 (stereo in doubt),> 100 µM,–
CCC(=O)CC(=O)CCC(=O)Nc1cc(C)ccc1C,> 100 µM,–
CC[As](CC)SC[C@H](C)C(=O)N1CCC[C@H]1C(=O)O,0.162 µM,0.0419 µM
NC(N)=N/N=C/c1c(-c2ccsc2)nc2sccn12,27.2 µM,13.7 µM
Oc1ccc(Nc2ncnc3c2sc2ncccc23)cc1,> 100 µM,< 0.01 µM
CC(=O)OC1COC(Oc2c(C)c3c4c(c2O)[C@@H](C)CC[C@@H]4[C@@H](C)C[C@H]3C=C(C)C)C(O)C1OC(C)=O (stereo partly specified),23.4 µM,10.8 µM
O=c1/c(=C/c2ccccc2[N+](=O)[O-])sc2nnc(-c3ccco3)n12,58.8 µM,–
CC(=O)CCn1ncc(Cl)c(Cl)c1=O,27.9 µM,–
CN1CC(=O)N2Cc3ccccc3-n3cccc3C2C1 (stereo unspecified),> 100 µM,–
Cc1ccc(SC2c3ccc(C)cc3Oc3nc(N)c(C#N)c(N)c32)cc1 (stereo unspecified),3.58 µM,1.88 µM
Cc1cn2c(=O)c3ncn(C4OC(CO)C(O)C4O)c3n(C)c2n1 (stereo unspecified),> 100 µM,–

# System: BT-549 breast
# Assay: DTP human tumour cell line panel, 48 h
SMILES,GI50 [µM],TGI
COc1ccc(Sc2[nH]c(C(C)=O)c3ccccc23)cc1,3.13,17.4 µM
C#CCOc1cccc(-c2ncc3cc(NC(=O)CCl)ccc3n2)c1,1.47,3.18 µM
COc1ccc(OC)c2c1[nH]c(=O)c1c3ccccc3cn21,2.27,5.29 µM
COc1cccc2c1C(=O)c1c(O)c3c(c(O)c1C2=O)C[C@@](O)(C(=O)CO)C[C@@H]3OC1CC(N)CC(C)O1 (stereo partly specified),0.106,0.46 µM and 0.215 µM
O=CCC1CCCCC1,–,> 100 µM
Nc1ccc([N+](=O)[O-])cc1N=C/C=C/c1ccccc1,12.5,> 100 µM
Cc1cc(Nc2ccc(NC(=O)c3ccc(Nc4ccnc5ccccc45)cc3)cc2)nc(N)n1,2.25,5.74 µM
COC(=O)C1c2cc3c(cc2C(OC2OC(C)C(OC)C(C)(OC)C2OC)CC1(C)O)C(=O)c1c(O)cc2c(c1C3=O)OC1OC2(C)C(O)C([N+](C)(C)[O-])C1O (stereo unspecified),–,9.14 µM
CNCc1ccccc1-c1csc([C@@H](C)Nc2nc(C)nc3cc(OC)c(OC)cc23)c1,1.76,3.55 µM
COc1cc(OCc2cccc(-c3ccc(C(O)c4nccs4)cc3)c2C)cc(OC)c1C=O (stereo unspecified),1.77,6.78 µM
O=C(O)COc1ccc2c(=O)c3sc4c(=O)c5ccccc5c(=O)c4c3c(=O)c2c1,6.99,21.8 µM
CC[As](CC)SC[C@H](C)C(=O)N1CCC[C@H]1C(=O)O,0.0749,0.515 µM
NC(N)=N/N=C/c1c(-c2ccsc2)nc2sccn12,22.3,38.1 µM
Oc1ccc(Nc2ncnc3c2sc2ncccc23)cc1,0.0389,> 100 µM
CC(=O)OC1COC(Oc2c(C)c3c4c(c2O)[C@@H](C)CC[C@@H]4[C@@H](C)C[C@H]3C=C(C)C)C(O)C1OC(C)=O (stereo partly specified),26.9,69.7 µM
Cc1ccc(SC2c3ccc(C)cc3Oc3nc(N)c(C#N)c(N)c32)cc1 (stereo unspecified),1.63,3.25 µM

# System: NCI/ADR-RES ovarian
# Assay: DTP human tumour cell line panel, 48 h
SMILES,GI50 [µM],TGI [µM]
COc1ccc(Sc2[nH]c(C(C)=O)c3ccccc23)cc1,11.8,31.8
